The subject of series [1] is Male Sprague-Dawley rats. Nature of the series: Body temperature in rats under pentobarbital anesthesia. The settings on record: 1 h after 50 mg/kg 7-NI i.p., control 36.5±0.1, p<0.02. The format is in vivo, rat. Here is the method: Stereotaxic Lesion Technique. Male Sprague-Dawley rats (Charles River, Cambridge, Mass.) weighing 300-325 g were anesthetized with pentobarbital (50 mg/kg i.p.) and positioned in a David Kopf stereotaxic instrument with the incisor bar set at 3.3 mm below the intermural line. Malonate, NMDA, KA, and AMPA were dissolved in 0.1M phosphate-buffered saline (pH, 7.4). Intrastriatal injections were made with a 10 μl Hamilton syringe fitted with a 30 gauge blunt-tipped needle into the left striatum at the coordinates 0.5 mm anterior bregma, 2.6 mm lateral to the midline and 5 mm ventral to the dura. Injection volumes were 1 μl (3 μmol malonate). All injections were made over 1 min and the needle was left in place for an additional 1 min before being slowly withdrawn. 7-NI was dissolved and sonicated in peanut oil at a concentration of 10 mg/ml. 50 mg/kg of 7-NI were administered i.p. 30 min before striatal injections of malonate, NMDA, KA and AMPA. […] Nine to ten animals were used per group in each experiment.

The subject of series [2] is rats. Nature of the series: Striatal ATP after intrastriatal malonate (luciferin-luciferase). The format is in vivo, rat. Particulars: 7-NI 50 mg/kg; 3 μmol malonate; measured 1.5 h after injection. On the procedure:
ATP Measurements. The effects of 7-NI on malonate-induced decreases in striatal ATP concentrations were examined. 50 mg/kg of 7-NI dissolved in peanut oil or peanut oil vehicle were administered i.p. 0.5 h before intrastriatal injection of 3 μmol malonate. […] After decapitation the heads were rapidly frozen in liquid nitrogen and subsequently stored at -70° C. The striata were dissected from a 2 mm slice frontal and adjacent to the anterior commissure on a freezing cold plate. The corpus callosum, the septal complex, and the anterior commissure were used as dorsal and lateral, medial, and ventral boundaries. ATP was measured by the luciferin-luciferase assay (Lust et al. (1981) Anal. Biochem. 110-258-266). Proteins were measured on the pellets using a fluorimetric assay. Eight animals per group were examined.

Series [3] deals with T1, MAO-B (Mus musculus, UniProt Q8BW75).
T1 construct: Crude mitochondrial preparations were obtain from the forebrains; from tissue; host or cells: mouse forebrain, crude mitochondrial fraction (P2 pellet on a discontinuous Ficoll gradient)
T1 sequence (Q8BW75 1-520): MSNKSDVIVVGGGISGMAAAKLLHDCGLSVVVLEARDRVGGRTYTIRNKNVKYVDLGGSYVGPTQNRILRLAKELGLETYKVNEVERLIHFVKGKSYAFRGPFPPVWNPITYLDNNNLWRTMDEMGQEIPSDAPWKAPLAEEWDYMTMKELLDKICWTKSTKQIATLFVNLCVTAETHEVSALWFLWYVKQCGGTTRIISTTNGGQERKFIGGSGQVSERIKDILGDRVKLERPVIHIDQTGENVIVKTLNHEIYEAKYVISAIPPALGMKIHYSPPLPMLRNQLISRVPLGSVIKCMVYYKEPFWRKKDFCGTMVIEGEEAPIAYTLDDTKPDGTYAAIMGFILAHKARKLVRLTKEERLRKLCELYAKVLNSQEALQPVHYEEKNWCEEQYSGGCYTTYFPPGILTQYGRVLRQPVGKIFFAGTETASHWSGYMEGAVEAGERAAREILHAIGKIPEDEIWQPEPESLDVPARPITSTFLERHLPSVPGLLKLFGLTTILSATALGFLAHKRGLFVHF
Description: MAO-B activity in forebrain mitochondrial fractions of treated mice. The format is biochemical. The settings on record: four doses at 2-h intervals: deprenyl 10 mg/kg i.p. or 7-NI 50 mg/kg s.c.; vehicle 5.79±0.44.

Series [4] deals with dopamine transporter (Mus musculus, UniProt Q61327). Particulars: at 1, 10 and 100 μM; 0.13 μM [3H]-dopamine.
Series [5] relates to Male Swiss-Webster mice. Nature of the series: MPTP-induced neurotoxicity in mice: striatal dopamine, DOPAC, HVA. Particulars: at 1 week. Format: in vivo, mouse. Here is the method: Methods. Male Swiss-Webster mice (30-35 g:Taconic Farms, Germantown, N.Y., U.S.A.) were treated with either normal saline or MPTP hydrochloride (Research Biochemicals, Natick, Mass., U.S.A.). MPTP was administered in 0.1 ml of water at a dose of 10 mg/kg i.p. at 2-h intervals for six doses or 20 mg/kg i.p. at 2-h intervals for four doses. 7-NI (Cookson Chemical Ltd., Southhampton, U.K.) was dissolved in peanut oil (Sigma, St. Louis, Mo., U.S.A.) at a concentration of 5 mg/ml. Mice received doses of 25 or 50 mg/kg per subcutaneous injection. MPTP-treated animals were treated with peanut oil or 7-NI 12 h before the first, at every MPTP injection, and every 8 h for 48 h after MPTP injections. Eleven to 12 animals were used in each group. Animals were killed at 1 week. The two striata were rapidly dissected and placed in chilled 0.1M perchloric acid. Tissue was subsequently sonicated, and aliquots were taken for protein quantification using a fluorometric assay (Beal et al., 1990) J. Neurochem. 55:1327-1339).
Dopamine, 3,4-dihydroxyphenlyacetic acid (DOPAC), homovanillic acid (HVA), p-tyrosine, and 3-nitrotyrosine were quantified by HPLC with 16-electrode electrochemical detection (Beal et al. (1990) supra) and are expressed as ng/mg protein (mean±SEM) (FIG. 1). 3-Nitrotyrosine data are expressed as ratios of 3-nitrotyrosine to p-tyrosine to normalize for differing brain concentrations of tyrosine. The statistical significance of differences was determined via one-way ANOVA followed by Fisher PLSD post hoc test to compare group means. All animal use procedures were in strict accordance with the NIH Guide for the Care and Use of Laboratory Animals and were approved by the local Animal Care Committee.

In series [6] the target is T1, MAO-B. Description: MAO-B activity in vitro, mitochondrial fraction of mouse forebrain. Format: biochemical. Particulars: at 1, 10, and 100 μM.
The conditions of series [7]: Babbedge et al. 1993; Moore et al. 1993; cited from earlier work.

Structures are written as SMILES.

Chain of dopamine transporter (Q61327 whole entry): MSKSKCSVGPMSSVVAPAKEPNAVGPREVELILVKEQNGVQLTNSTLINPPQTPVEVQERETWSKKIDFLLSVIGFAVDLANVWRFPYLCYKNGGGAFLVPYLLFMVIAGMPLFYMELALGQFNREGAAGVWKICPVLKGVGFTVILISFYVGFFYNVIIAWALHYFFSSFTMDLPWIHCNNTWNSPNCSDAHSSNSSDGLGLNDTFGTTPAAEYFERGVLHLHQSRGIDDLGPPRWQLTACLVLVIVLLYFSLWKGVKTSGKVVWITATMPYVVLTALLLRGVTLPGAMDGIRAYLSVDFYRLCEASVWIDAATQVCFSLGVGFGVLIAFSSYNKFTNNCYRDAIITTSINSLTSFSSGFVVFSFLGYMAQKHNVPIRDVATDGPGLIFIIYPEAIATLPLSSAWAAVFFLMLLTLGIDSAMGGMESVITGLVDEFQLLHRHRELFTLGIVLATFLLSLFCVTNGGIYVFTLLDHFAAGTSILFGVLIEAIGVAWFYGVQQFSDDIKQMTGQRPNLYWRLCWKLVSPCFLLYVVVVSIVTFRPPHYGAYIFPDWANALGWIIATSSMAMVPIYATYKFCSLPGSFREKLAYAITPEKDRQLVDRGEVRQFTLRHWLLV

With `O=[N+]([O-])c1cccc2cn[nH]c12` [7-NI, 7-nitroindazole], the body temperature in series [1] worked out at 35.9±0.26 ° c. Further, the “malonate-induced decreases of striatal ATP concentrations” value in series [2] is “significantly attenuated”. For the same molecule, in series [3], the “MAO-B activity in forebrain mitochondrial fraction after in vivo treatment” value was 5.69±0.40 nmol/min/mg of protein. The “inhibition of [3H]dopamine uptake into synaptosomes” value in series [4] was “did not inhibit”. Also, in series [5] (MPTP 10 mg/kg i.p. x6 at 2-h intervals, 7-NI 50 mg/kg s.c.), the “striatal dopamine, % of control values” is 92 % of control values. In addition, in series [5] (MPTP 20 mg/kg i.p. x4, 7-NI 50 mg/kg), the “protection against MPTP-induced depletions of dopamine, HVA and DOPAC” value is “almost complete protection”. Further, the “inhibition of MAO-B activity in vitro” value in series [6] is “did not inhibit”. Besides, the “effect on blood pressure in vivo” value in series [7] is “no effect”.
